Laboratory results: US8088828B2, “Treating benign prostate hyperplasia with SARMS” (priority 2002, dated 2012)

Assays:
[1] = tested on: male Sprague-Dawley rats (intact, hemi-orchidectomized, castrated); experiment: Prostate, seminal vesicle and levator ani muscle weights in rats of varying hormonal status; assay type: in vivo, rat; conditions: 0.5 mg/day, 14 days
Text: (§1) Methods: Compound VI was synthesized and characterized in the laboratory of Dr. Duane Miller at the University of Tennessee, Memphis, Tenn. Male Sprague-Dawley rats were purchased from Harlan Biosciences (Indianapolis, Ind.). The animals were maintained on a 12-h cycle of light and dark with food and water available ad libitum. All animal studies were reviewed and approved by the Animal Care and Use Committee of The Ohio State University, and conformed to the Principles of Laboratory Animal Care. Immature male Sprague-Dawley rats weighing […] were randomly distributed into 9 groups of 5 animals. One day before the initiation of drug treatment, groups 4 through 6 and groups 7 through 9 received unilateral or bilateral orchidectomy, respectively, via a midline scrotal incision. […] All drugs given to animals were freshly prepared as solutions in polyethylene glycol 300 (PEG 300). Groups 4 and 7 received treatment with vehicle alone (i.e., PEG 300). Animals in groups 3, 6, and 9 received testosterone propionate (TP, 0.5 mg/day) via implantation of subdermal osmotic pumps (Model 2002, Durect Corporation, Palo Alto, Calif.). Animals in groups 2, 5, and 8 received Compound VI (0.5 mg/day) via implantation of subdermal osmotic pumps. After 14 days of drug treatment, rats were weighed, anesthetized, and sacrificed. Blood samples were collected by venipuncture of the abdominal aorta. Plasma samples were analyzed for testosterone, FSH, LH and osteocalcin. Testosterone concentrations were measured by AniLytics Inc. (Gaithersburg, Md.). FSH and LH levels were measured by the National Hormone and Peptide Program (Dr. A F Parlow, UCLA, CA). Plasma osteocalcin levels were determined using a commercially available rat osteocalcin EIA kit from Biomedical Technologies Inc. (Stoughton, Mass.). The ventral prostates, seminal vesicles, and levator ani muscle were removed and weighed. Osmotic pumps were also removed from animals to check for correct pump operation. The weights of all organs were normalized to body weight, and analyzed for any statistically significant differences between groups using single-factor ANOVA with the alpha value set a priori at p<0.05. The weights of prostates and seminal vesicles were used as indices for evaluation of androgenic activity, and the levator ani muscle weight was used to evaluate the anabolic activity. Statistical analyses of parameters from complete blood count or serum chemical profiling, wherever applicable, were performed by single-factor ANOVA with the alpha value set a priori at p<0.05.

[2] = molecular target: T1, human 5α-reductase type 1 (Homo sapiens, UniProt P18405); assay type: cell-based
T1 construct: expressed in transfected cells; host or cells: COS1 cells; expression vectors obtained from Dr. David W. Russell
T1 sequence (P18405 1-259): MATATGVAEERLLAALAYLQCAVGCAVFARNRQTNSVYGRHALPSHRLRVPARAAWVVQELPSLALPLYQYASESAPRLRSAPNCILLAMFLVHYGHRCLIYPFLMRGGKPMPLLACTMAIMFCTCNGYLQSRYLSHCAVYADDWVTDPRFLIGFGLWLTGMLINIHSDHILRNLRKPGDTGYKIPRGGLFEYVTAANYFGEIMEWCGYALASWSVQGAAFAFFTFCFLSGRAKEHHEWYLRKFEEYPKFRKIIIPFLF
Protocol: (§2) Methods: COS1 (American Type Culture Collection, Manassas, Va.) cells were plated in twelve-well plates at a density of 60,000 cells/well and transiently transfected with expression vectors for human 5•-reductase (obtained from Dr. David W. Russell, Southwestern Medical Center, Dallas, Tex.). LipofectAMINE PLUS™ Reagent (Invitrogen, Carlsbad, Calif.) was used for transfection. pCMV•SPORT-•gal plasmid (Invitrogen, Carlsbad, Calif.) was co-transfected to monitor transfection efficiency. Forty-eight hours after transfection, testosterone (4 μM) and/or Compound VI (2 or 200 μM) were added to the medium and incubated at 37° C. Aliquots of the culture medium were removed after 2 hours and the reaction stopped by addition of ice-cold acetonitrile (1:1, vol:vol). Testosterone and Compound VI concentrations in the incubate were determined by HPLC using a reversed-phase column (μBondaPak C18, 3.9×300 mm, Waters Corporation, Milford, Mass.) and a mobile phase of 38% acetonitrile in deionized water at a flow rate of 1.5 ml/min. Analytes were detected by UV absorbance at 254 nm. Calibration curves were prepared using the peak areas to calculate the concentration of testosterone or Compound VI in the incubate at the completion of the reaction. Cells were lysed after the reaction and the cellular supernatant used to determine •-galactosidase activity and ensure equal transfection efficiency between wells.

[3] = molecular target: T2, human 5α-reductase type 2 (Homo sapiens, UniProt P31213); assay type: cell-based
T2 construct: expressed in transfected cells; host or cells: COS1 cells; expression vectors obtained from Dr. David W. Russell
T2 sequence (P31213 1-254): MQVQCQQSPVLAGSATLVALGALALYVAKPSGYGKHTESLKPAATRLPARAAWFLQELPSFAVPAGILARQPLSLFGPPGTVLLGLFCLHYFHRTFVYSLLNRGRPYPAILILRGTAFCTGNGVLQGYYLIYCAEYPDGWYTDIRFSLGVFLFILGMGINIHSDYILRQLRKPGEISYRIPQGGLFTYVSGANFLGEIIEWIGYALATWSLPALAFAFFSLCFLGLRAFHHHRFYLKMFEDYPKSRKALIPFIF
Protocol: as §2

[4] = tested on: male Sprague-Dawley rats (intact, hemi-orchidectomized, castrated); experiment: Plasma testosterone, FSH, LH and osteocalcin in rats of varying hormonal status; assay type: in vivo, rat; conditions: for Plasma FSH levels / Plasma LH levels / Plasma osteocalcin levels / Plasma testosterone levels: 0.5 mg/day osmotic pump, 14 days
Text: as §1

[5] = tested on: intact male Sprague-Dawley rats; experiment: Organ weights in intact male rats after 3, 6 or 9 days of daily subcutaneous injections; assay type: in vivo, rat
Protocol: Methods: Male Sprague-Dawley rats were purchased from Harlan Biosciences (Indianapolis, Ind.). The animals were maintained on a 12-h cycle of light and dark with food and water available ad libitum. Male Sprague-Dawley rats weighing 189 to 226 g were randomly distributed into groups of 5 animals. The intact male rats were treated with hydroxy-flutamide (0.5, 1, 5, 10 or 25 mg/kg), finasteride (5 mg/kg), Compound VII (0.5, 1, 5, 10, 25 mg/kg) or vehicle for 3, 6, or 9 days. The drugs were dissolved in DMSO:PEG300 (20:80, v:v) and administered via daily subcutaneous injections, and the dosages were adjusted based on animal's body weight, which was measured on a daily basis. A group of castrated rats (n=5) was also included as control for each time point. […] The organ weights were normalized with the body weights. Percentage changes were determined by comparison to intact animals. Statistical analyses of all the parameters were performed by single-factor ANOVA with the alpha value set a priori at p<0.05.

[6] = Compound VI 2 μM, 2-hour incubation
[7] = testosterone 4 μM, Compound VI 2 μM or 200 μM, 2 hours
[8] = all surgical groups, 0.5 mg/day
[9] = testosterone 4 μM alone, 2 hours
[10] = 3 days, all doses (0.5, 1, 5, 10, mg/kg) s.c.

CC(=O)Nc1ccc(OC[C@](C)(O)C(=O)Nc2ccc([N+](=O)[O-])c(C(F)(F)F)c2)cc1 [Compound VI]
Levator ani muscle weight normalized to body weight ([1]; castrated rats): 100.65 ± 10.86 % of intact control
Prostate weight normalized to body weight ([1]; castrated rats): 32.55 ± 11.65 % of intact control
Seminal vesicle weight normalized to body weight ([1]; castrated rats): 16.47 ± 5.21 % of intact control
Levator ani muscle weight normalized to body weight ([1]; hemi-orchidectomized rats): 108.10 ± 8.92 % of intact control
Prostate weight normalized to body weight ([1]; hemi-orchidectomized rats): 74.69 ± 8.44 % of intact control
Seminal vesicle weight normalized to body weight ([1]; hemi-orchidectomized rats): 78.55 ± 13.58 % of intact control
size of the levator ani muscle ([1]; hemi-orchidectomized rats): 108 % of that observed in untreated hemi-orchidectomized animals
size of the prostate ([1]; hemi-orchidectomized rats): 75 % of that observed in untreated hemi-orchidectomized animals
size of the seminal vesicles ([1]; hemi-orchidectomized rats): 79 % of that observed in untreated hemi-orchidectomized animals
Levator ani muscle weight normalized to body weight ([1]; intact rats): 109.15 ± 14.68 % of intact control
Prostate weight normalized to body weight ([1]; intact rats): 79 % of intact control
Seminal vesicle weight normalized to body weight ([1]; intact rats): 90.54 ± 12.10 % of intact control
changes in the size of the seminal vesicles or levator ani muscle ([1]; intact rats): no statistically significant changes
Prostate weight normalized to body weight ([1]; intact rats, listed as COMPOUND VI): 79.41 ± 9.32 % of intact control
adverse pharmacologic effects ([1]; rats): No adverse pharmacologic effects were observed
type of inhibition of 5α-reductase type 1 [2]: competitive inhibitor
metabolism of Compound VI by 5α-reductase type 1 [2, 6]: not metabolized
decrease in testosterone concentration in the presence of Compound VI [2, 7]: less than 10%
type of inhibition of 5α-reductase type 2 [3]: competitive inhibitor
metabolism of Compound VI by 5α-reductase type 2 [3, 6]: not metabolized
decrease in testosterone concentration in the presence of Compound VI [3, 7]: less than 10%
effect on plasma FSH and LH levels [4, 8]: no effect
Plasma FSH levels ([4]; castrated rats): 69.6 ± 11.7 ‡ ng/ml
Plasma LH levels ([4]; castrated rats): 8.644 ± 2.799 ‡ ng/ml
Plasma osteocalcin levels ([4]; castrated rats): 94.215 ± 12.568 ng/mL
Plasma testosterone levels ([4]; castrated rats): 0.066 ± 0.148 ‡ ng/ml
effect on plasma osteocalcin levels ([4]; hemi-orchidectomized and castrated animals, 0.5 mg/day): significant increase
Plasma FSH levels ([4]; hemi-orchidectomized rats): 15.2 ± 2.2 ng/mL
Plasma LH levels ([4]; hemi-orchidectomized rats): 0.124 ± 0.115 ng/mL
Plasma osteocalcin levels ([4]; hemi-orchidectomized rats): 89.804 ± 15.517 ng/mL
Plasma testosterone levels ([4]; hemi-orchidectomized rats): 1.404 ± 0.810 ng/mL
Plasma FSH levels ([4]; intact rats): 14.4 ± 1.7 ng/mL
Plasma LH levels ([4]; intact rats): 0.026 ± 0.037 ng/mL
Plasma osteocalcin levels ([4]; intact rats): 55.584 ± 9.715 ng/mL
Plasma testosterone levels ([4]; intact rats): 1.830 ± 0.510 ng/mL
effect on plasma testosterone levels ([4]; intact, hemi-orchidectomized or castrated male rats, 0.5 mg/day): did not affect

CCC(=O)O[C@H]1CC[C@H]2[C@@H]3CCC4=CC(=O)CC[C@]4(C)[C@H]3CC[C@]12C [TP, testosterone propionate, reference compound]
Levator ani muscle weight normalized to body weight ([1]; castrated rats): 87.27 ± 10.25 % of intact control
Prostate weight normalized to body weight ([1]; castrated rats): 76.78 ± 10.43 % of intact control
Seminal vesicle weight normalized to body weight ([1]; castrated rats): 63.48 ± 17.05 % of intact control
Levator ani muscle weight normalized to body weight ([1]; hemi-orchidectomized rats): 98.63 ± 10.47 % of intact control
Prostate weight normalized to body weight ([1]; hemi-orchidectomized rats): 98.57 ± 7.98 % of intact control
Seminal vesicle weight normalized to body weight ([1]; hemi-orchidectomized rats): 114.19 ± 23.81 % of intact control
Levator ani muscle weight normalized to body weight ([1]; intact rats): 95.61 ± 9.34 % of intact control
Prostate weight normalized to body weight ([1]; intact rats): 97.45 ± 10.82 % of intact control
Seminal vesicle weight normalized to body weight ([1]; intact rats): 103.95 ± 13.23 % of intact control
effect on plasma osteocalcin levels [4, 8]: no effect
effect on plasma FSH and LH levels ([4]; castrated male rats, 0.5 mg/day): significant decrease
Plasma FSH levels ([4]; castrated rats): 58.0 ± 6.9 † ‡ ng/ml
Plasma LH levels ([4]; castrated rats): 6.702 ± 1.513 ‡ ng/ml
Plasma osteocalcin levels ([4]; castrated rats): 65.976 ± 11.213 ng/mL
Plasma testosterone levels ([4]; castrated rats): 0.258 ± 0.103 † ‡ ng/ml
Plasma FSH levels ([4]; hemi-orchidectomized rats): 17.2 ± 3.3 ng/mL
Plasma LH levels ([4]; hemi-orchidectomized rats): 0.124 ± 0.092 ng/mL
Plasma osteocalcin levels ([4]; hemi-orchidectomized rats): 77.236 ± 24.418 ng/mL
Plasma testosterone levels ([4]; hemi-orchidectomized rats): 2.366 ± 1.232 ng/mL
Plasma FSH levels ([4]; intact rats): 11.4 ± 1.7 ng/mL
Plasma LH levels ([4]; intact rats): 0.168 ± 0.173 ng/mL
Plasma osteocalcin levels ([4]; intact rats): 74.952 ± 15.399 ng/mL
Plasma testosterone levels ([4]; intact rats): 1.482 ± 0.416 ng/mL

C[C@]12CC[C@H]3[C@@H](CCC4=CC(=O)CC[C@@]43C)[C@@H]1CC[C@@H]2O [Testosterone, testosterone, reference compound]
decrease in testosterone concentration (conversion to DHT) [2, 9]: 34%
decrease in testosterone concentration (conversion to DHT) [3, 9]: 35%

CC(C)(C)NC(=O)[C@H]1CC[C@H]2[C@@H]3CC[C@H]4NC(=O)C=C[C@]4(C)[C@H]3CC[C@]12C [finasteride]
effect on levator ani muscle weight ([5]; 3 days, 5 mg/kg s.c.): no effect
prostate weight (compared to intact animals) ([5]; 3 days, 5 mg/kg s.c.): 59%
seminal vesicle weight (compared to intact animals) ([5]; 3 days, 5 mg/kg s.c.): 38%
changes in levator ani muscle weight ([5]; 6 days, 5 mg/kg s.c.): no significant changes
prostate weight (compared to intact animals) ([5]; 6 days, 5 mg/kg s.c.): 67%
seminal vesicle weight (compared to intact animals) ([5]; 6 days, 5 mg/kg s.c.): 47%
change in levator ani muscle weight ([5]; 9 days, 5 mg/kg s.c.): not significantly changed
prostate weight (compared to intact animals) ([5]; 9 days, 5 mg/kg s.c.): 55%
seminal vesicle weight (compared to intact animals) ([5]; 9 days, 5 mg/kg s.c.): 29%

CC(C)(O)C(=O)Nc1ccc([N+](=O)[O-])c(C(F)(F)F)c1 [hydroxy-flutamide]
levator ani muscle weight (compared to intact animals) [5, 10]: ~85%
prostate weight (normalized to body weight, compared to intact animals) [5, 10]: approximately 60%
seminal vesicle weight (compared to intact animals) [5, 10]: ~50%
levator ani muscle weight (compared to intact animals) ([5]; 6 days, 25 mg/kg s.c.): 65%
prostate weight (compared to intact animals) ([5]; 6 days, 25 mg/kg s.c.): 54%
seminal vesicle weight (compared to intact animals) ([5]; 6 days, 25 mg/kg s.c.): 41%
organ weights (prostate, seminal vesicle, levator ani muscle) ([5]; 6 days, lower dose groups (0.5, 1, 5, 10 mg/kg) s.c.): returned to the levels observed in intact animals
effects on all the organ weights compared to previous time points ([5]; 9 days, 25 mg/kg s.c.): maintained its effects on all the organ weights at a similar level
changes in prostate, seminal vesicle and levator ani muscle weights ([5]; 9 days, lower doses (0.5, 1, 5, 10 mg/kg) s.c., dose-dependent): moderate decreases
